Data reported in patent US20060241177A1, “Novel compounds, pharmaceutical compositions containing same, and methods of use for same” (priority 2002, published 2006).
Converted amounts (≈) assume the structure as drawn.

Each compound was assayed on MCF-7 human breast cancer cells (assay: XTT cytotoxicity assay). Details: MCF7, MCF-7 cells, 72 hours.
Format: cell-based
Method: The XTT assay is a non-radioactive alternative for the [^51Cr] release cytotoxicity assay. XTT is a tetrazolium salt that is reduced to a formazan dye only by metabolically active, viable cells. The reduction of XTT is measured spectrophotometrically as OD490-OD650.
To measure the cytotoxicity of specific compounds against cancer cells, 9×10^3 MCF-7 human breast cancer cells, obtained from the American Type Culture Collection are plated per well in 96 well plates in DMEM medium with 10% fetal bovine serum, msulin, penicillin, and streptomycin. Following overnight culture at 37° C. and 5% CO2, the compounds to be tested, dissolved in DMSO, are added to the wells in 1 μl volume at the following concentrations: 80, 40, 20, 10, 5, 2.5, 1.25, and 0.625 μg/ml in triplicate. Additional concentrations are tested if required. 1 μl of DMSO is added to triplicate wells are the vehicle control. C75 is run at 40, 20, […], and 5 μg/ml in triplicate as positive controls.
After 72 hours of incubation, cells are incubated for 4 hours with the XTT reagent as per manufacturer's instructions (Cell Proliferation Kit II (XTT) Roche). Plates are read at OD490 and OD650 on a Molecular Devices SpectraMax Plus Spectrophotometer. Three wells containing the All reagent without cells serve as the plate blank. XTT data are reported as OD490-OD650. Averages and standard error of the mean are computed using SOFTmax Pro software ([…]).
The IC50 for the compounds is defined as the concentration of drug leading to a 50% reduction in OD490-OD650 compared to controls. The OD490-OD650 are computed by the SOFTmax PRO software Molecular Devices) for each compound concentration. IC50 is calculated by linear regression, plotting the FAS activity as percent of control versus drug concentrations. Linear regression, best-fit line, r^2, and 95% confidence intervals are determined using Prism Version 3.0 (Graph Pad Software).

Compound	IC50 [µg/mL]
CCCCCCCCC1OC(=O)[C@@H](C)[C@H]1C(=O)O (stereo partly shown)	> 80
CCCCCCCCC1OC(=O)[C@H](C)[C@H]1C(=O)O (stereo partly shown)	> 80
C=CCNC(=O)C1=C(C)C(=O)O[C@H]1CCCCCCCC	27.8 ± 3.8 (≈ 94.7 µM)
C=CCNC(=O)[C@@H]1C(=C)C(=O)O[C@H]1CCCCCCCC (racemic)	0.81 ± 0.01 (≈ 2.76 µM)
C=CCNC(=O)[C@H]1[C@H](CCCCCCCC)OC(=O)[C@H]1C (racemic)	59.4 ± 6.4 (≈ 201 µM)

The compounds below were run on Enterococcus faecalis (ATCC #29212) (assay: Broth microdilution MIC). Details: Enterococcus faecalis, ATCC29212; Mueller Hinton Broth, 24 hours; read-out: EF/MH (MIC).
Format: cell-based
Method: (§1) A broth microdilution assay is used to assess the antimicrobial activity of the compounds. Compounds are tested at twofold serial dilutions, and the concentration that inhibits visible growth (OD600 at 10% of control) is defined as the MIC. Microorganisms tested include Staphylococcus aureus (ATCC #29213), Enterococcus faecalis (ATCC #29212), Pseudomonas aeruginosa (ATCC #27853), and Escherichia coli (ATCC #25922). The assay is performed in two growth media, Mueller Hinton Broth and Trypticase Soy Broth.
(§2) A blood (Tsoy/5% sheep blood) agar plate is inoculated from frozen stocks maintained in T soy broth containing 10% glycerol and incubated overnight at 37° C. Colonies are suspended in sterile broth so that the turbidity matches the turbidity of a 0.5 McFarland standard. The inoculum is diluted 1:10 in sterile broth (Mueller Hinton or Trypticase soy) and 195 ul is dispensed per well of a 96-well plate. The compounds to be tested, dissolved in DMSO, are added to the wells in 5 ul volume at the following concentrations: 25, 12.5, 6.25, 3.125, 1.56 and 0.78 ug/ml in duplicate. Additional concentrations are tested if required. 5 ul of DMSO added to duplicate wells are the vehicle control. Serial dilutions of positive control compounds, vancomycin (E. faecalis and S. aureus) and tobramycin (E. coli and P. aeruginosa), are included in each rum
(§3) After 24 hours of incubation at 37° C., plates are read at OD600 on a Molecular Devices SpectraMax Plus Spectrophotometer. Average OD600 values are computed using SOFTmax Pro Software (Molecular Devices) and MIC values are determined by linear regression analysis using Prism version 3.02 (Graph Pad Software, San Diego). The MIC is defined as the concentration of compound required to produce an OD600 reading equivalent to 10% of the vehicle control reading.

MIC [µg/mL]	Compound
109 (≈ 425 µM)	CCCCCCCCC1OC(=O)[C@H](C)[C@H]1C(=O)O (stereo partly shown)
115 (≈ 392 µM)	C=CCNC(=O)C1=C(C)C(=O)O[C@H]1CCCCCCCC
91 (≈ 308 µM)	C=CCNC(=O)[C@H]1[C@H](CCCCCCCC)OC(=O)[C@H]1C (racemic)

Compound	MIC [µg/mL]
C=CCNC(=O)[C@@H]1C(=C)C(=O)O[C@H]1CCCCCCCC (racemic)	36 (≈ 123 µM)

Same assay, conditions: Enterococcus faecalis, ATCC29212; Trypticase Soy Broth, 24 hours; read-out: EF/Tsoy (MIC)

MIC [µg/mL]	Compound
94 (≈ 367 µM)	CCCCCCCCC1OC(=O)[C@H](C)[C@H]1C(=O)O (stereo partly shown)
203 (≈ 692 µM)	C=CCNC(=O)C1=C(C)C(=O)O[C@H]1CCCCCCCC
114 (≈ 386 µM)	C=CCNC(=O)[C@H]1[C@H](CCCCCCCC)OC(=O)[C@H]1C (racemic)

Compound	MIC [µg/mL]
C=CCNC(=O)[C@@H]1C(=C)C(=O)O[C@H]1CCCCCCCC (racemic)	25 (≈ 85.2 µM)

What follows are compounds tested on Escherichia coli (ATCC #25922) (assay: Broth microdilution MIC). Details: Escherichia coli, ATCC25922; Mueller Hinton Broth, 24 hours; read-out: Ecoli/MH (MIC).
Format: cell-based
Method: as §1, §2, §3

MIC [µg/mL]	Compound
108 (≈ 366 µM)	C=CCNC(=O)[C@H]1[C@H](CCCCCCCC)OC(=O)[C@H]1C (racemic)

Same assay, conditions: Escherichia coli, ATCC25922; Trypticase Soy Broth, 24 hours; read-out: Ecoli/Tsoy (MIC)

MIC [µg/mL]	Compound
199 (≈ 678 µM)	C=CCNC(=O)C1=C(C)C(=O)O[C@H]1CCCCCCCC

Same assay, conditions: Mueller Hinton Broth, 24 hours

Ecoli/MH (MIC)	Compound
Neg	CCCCCCCCC1OC(=O)[C@H](C)[C@H]1C(=O)O (stereo partly shown)
Neg	C=CCNC(=O)C1=C(C)C(=O)O[C@H]1CCCCCCCC

Same assay, conditions: Trypticase Soy Broth, 24 hours

Ecoli/Tsoy (MIC)	Compound
Neg	CCCCCCCCC1OC(=O)[C@H](C)[C@H]1C(=O)O (stereo partly shown)
Neg	C=CCNC(=O)[C@H]1[C@H](CCCCCCCC)OC(=O)[C@H]1C (racemic)

Each compound was assayed on Pseudomonas aeruginosa (ATCC #27853) (assay: Broth microdilution MIC). Details: Mueller Hinton Broth, 24 hours.
Format: cell-based
Method: as §1, §2, §3

PSAE/MH (MIC)	Compound
Neg	CCCCCCCCC1OC(=O)[C@H](C)[C@H]1C(=O)O (stereo partly shown)
Neg	C=CCNC(=O)[C@H]1[C@H](CCCCCCCC)OC(=O)[C@H]1C (racemic)

Compound	PSAE/MH (MIC)
C=CCNC(=O)[C@@H]1C(=C)C(=O)O[C@H]1CCCCCCCC (racemic)	Neg

Same assay, conditions: Pseudomonas aeruginosa, ATCC27853; Mueller Hinton Broth, 24 hours; read-out: PSAE/MH (MIC)

MIC [µg/mL]	Compound
280 (≈ 954 µM)	C=CCNC(=O)C1=C(C)C(=O)O[C@H]1CCCCCCCC

Same assay, conditions: Pseudomonas aeruginosa, ATCC27853; Trypticase Soy Broth, 24 hours; read-out: PSAE/Tsoy (MIC)

MIC [µg/mL]	Compound
137 (≈ 467 µM)	C=CCNC(=O)C1=C(C)C(=O)O[C@H]1CCCCCCCC

Same assay, conditions: Trypticase Soy Broth, 24 hours

PSAE/Tsoy (MIC)	Compound
Neg	CCCCCCCCC1OC(=O)[C@H](C)[C@H]1C(=O)O (stereo partly shown)
Neg	C=CCNC(=O)[C@H]1[C@H](CCCCCCCC)OC(=O)[C@H]1C (racemic)

Compound	PSAE/Tsoy (MIC)
C=CCNC(=O)[C@@H]1C(=C)C(=O)O[C@H]1CCCCCCCC (racemic)	Neg

These compounds were tested on Staphylococcus aureus (ATCC #29213) (assay: Broth microdilution MIC). Details: Staphylococcus aureus, ATCC29213; Mueller Hinton Broth, 24 hours; read-out: SA/MH (MIC).
Format: cell-based
Method: as §1, §2, §3

MIC [µg/mL]	Compound
43 (≈ 168 µM)	CCCCCCCCC1OC(=O)[C@H](C)[C@H]1C(=O)O (stereo partly shown)
79 (≈ 269 µM)	C=CCNC(=O)C1=C(C)C(=O)O[C@H]1CCCCCCCC
107 (≈ 362 µM)	C=CCNC(=O)[C@H]1[C@H](CCCCCCCC)OC(=O)[C@H]1C (racemic)

Compound	MIC [µg/mL]
C=CCNC(=O)[C@@H]1C(=C)C(=O)O[C@H]1CCCCCCCC (racemic)	9.1 ± 1.9 (≈ 31 µM)

Same assay, conditions: Staphylococcus aureus, ATCC29213; Trypticase Soy Broth, 24 hours; read-out: SA/Tsoy (MIC)

MIC [µg/mL]	Compound
60 (≈ 234 µM)	CCCCCCCCC1OC(=O)[C@H](C)[C@H]1C(=O)O (stereo partly shown)
87 (≈ 297 µM)	C=CCNC(=O)C1=C(C)C(=O)O[C@H]1CCCCCCCC

Compound	MIC [µg/mL]
C=CCNC(=O)[C@@H]1C(=C)C(=O)O[C@H]1CCCCCCCC (racemic)	12 ± 0.5 (≈ 40.9 µM)

Same assay, conditions: Trypticase Soy Broth, 24 hours

SA/Tsoy (MIC)	Compound
Neg	C=CCNC(=O)[C@H]1[C@H](CCCCCCCC)OC(=O)[C@H]1C (racemic)

What follows are compounds tested on MCF-7 human breast cancer cells (assay: Crystal violet cell growth assay). Details: MCF7, MCF-7 cells, 72 hours, read-out: Cr. Violet (IC50).
Format: cell-based
Method: Crystal Violet Cell Growth Assay
The crystal violet assay measures cell growth but not cytotoxicity. This assay employs crystal violet staining of fixed cells in 96-well plates with subsequent solubilization and measurement of OD490 on a spectrophotometer. The OD490 corresponds to cell growth per unit time measured. Cells are treated with the compounds of interest or vehicle controls and IC50 for each compound is computed.
To measure the cytotoxicity of specific compounds against cancer cells, 5×10^4 MCF-7 human breast cancer cells, obtained from the American Type Culture Collection are plated per well in 24 well plates in DMEM medium with 10% fetal bovine serum, penicillin, and streptomycin. Following overnight culture at 37° C. and 5% CO2, the compounds to be tested, dissolved in DMSO, are added to the wells in 1 μl volume at the following concentrations: 50, 40, 30, 20, and 10 μg/ml in triplicate. Additional concentrations are tested if required. 1 μl of DMSO is added to triplicate wells as the vehicle control. C75 is run at 10, and 5 μg/ml in triplicate as positive controls.
After 72 hours of incubation, cells are stained with 0.5 ml of Crystal Violet stain (0.5% in 25% methanol) in each well. After 10 minutes, wells are rinsed, air dried, and then solubilized with 0.5 ml 10% sodium dodecylsulfate with shaking for 2 hours. Following transfer of 100 μl from each well to a 96-well plate, plates are read at OD490 on a Molecular Devices SpectraMax Plus Spectrophotometer Average OD490 values are computed using SOFTmax Pro Software (Molecular Devices) and IC50 values are determined by linear regression analysis using Prism version 3.02 (Graph Pad Software, San Diego).

IC50 [µg/mL]	Compound
> 50	CCCCCCCCC1OC(=O)[C@@H](C)[C@H]1C(=O)O (stereo partly shown)
49 (≈ 191 µM)	CCCCCCCCC1OC(=O)[C@H](C)[C@H]1C(=O)O (stereo partly shown)
23.7 (≈ 80.8 µM)	C=CCNC(=O)C1=C(C)C(=O)O[C@H]1CCCCCCCC
43.9 ± 4.8 (≈ 149 µM)	C=CCNC(=O)[C@H]1[C@H](CCCCCCCC)OC(=O)[C@H]1C (racemic)

Compound	IC50 [µg/mL]
C=CCNC(=O)[C@@H]1C(=C)C(=O)O[C@H]1CCCCCCCC (racemic)	0.9 ± 0.5 (≈ 3.07 µM)
